# From patent US10851069B2, “Compositions of crystallized hydrophobic compounds and methods of making and using same” (Massachusetts Institute of Technology, priority 2016, dated 2020)
# What was measured:
# [1] = In vitro drug release from alginate capsules loaded with crystalline or amorphous formulations; assay type: physicochemical; settings: accelerated release conditions (+ SDS)
# Protocol: Release study was carried out in 3 different media, a normal saline-Isopropyl alcohol (10%) mixture, a phosphate buffer (pH 7.4), or for accelerated condition with phosphate buffered saline (pH 7.4) either with 0.1% w/v or 03% w/v SDS. Release study at NS+10% IPA was carried out in 2 ml medium at 37° C. Sampling was carried out by replacement of 1.5 ml of release medium by total replacement of release medium with fresh medium. […] For release in accelerated condition (PBS+SDS), the same time points were followed while 20 μl of drug loaded capsules were incubated in 2 ml release medium to achieve sink conditions. Drug concentration in samples was measured by reverse phase HPLC on C-18 column with a mobile phase or using UV calibrated system. An isocratic mode was set at a flow rate of 0.5-2 ml/min and a different wave-length of nm and 20-50 μl of samples was injected into an HPLC system (Waters, LC-Module-I) or UV analyzed. Calibration curves were prepared in concentration range of 0.05-10 μg/ml. Using prepared calibration curves, drugs concentration in different release samples were calculated.
# C57BL/6 mice = experiment: Naked (non-encapsulated) drug crystals injected IP with 500 μm alginate spheres, 2 weeks; assay type: in vivo
# Protocol: Naked crystals of GW2580 or saline-only (no drug control) were delivered intraperitoneally along with 500 μm alginate spheres for 2 weeks to C57BL/6 mice. […] Brightfield and fluorescence imaging was used to emphasize the respective presence or lack of fibrotic overgrowth on retrieved alginate spheres from either saline (control) or crystalline GW2580 treatment groups (FIG. 17C). […] GW2580 crystal testing (at doses of 0.5 and 5 mg/SC site) was also extended into the SC implant space with other immunogenic materials, ceramic glass (GL) and polymer polystyrene (PS). […] All animal protocols were approved by the MIT Committee on Animal Care, and all surgical procedures and post-operative care was supervised by MIT Division of Comparative Medicine veterinary staff. Immune-competent male non-diabetic or STZ-induced diabetic C57BL/6 mice (Jackson Laboratory, Bar Harbor, Me.) were anesthetized with 3% isoflurane in oxygen and had their abdomens shaved and sterilized using betadine and isopropanol. Preoperatively, all mice also received a 0.05 mg/kg dose of buprenorphine subcutaneously as a pre-surgical analgesic, along with 0.3 mL of 0.9% saline subcutaneously to prevent dehydration. A […] incision was made along the midline of the abdomen and the peritoneal lining was exposed using blunt dissection. The peritoneal wall was then grasped with forceps and a 0.5-1 mm incision was made along the linea alba. A desired volume of spheres (all materials without islets, as well as SLG20 spheres encapsulating rat islets) were then loaded into a sterile pipette and implanted into the peritoneal cavity through the incision. The incision was then closed using 5-0 taper-tipped polydioxanone (PDS II) absorbable sutures. The skin was then closed over the incision using a wound clip and tissue glue. At desired time points post-implantation or transplantation (with encapsulated islets), as specified in figures, mice were euthanized by CO2 administration, followed by cervical dislocation. In certain instances, 5 ml of ice cold PBS was first injected in order perform an intraperitoneal lavage to rinse out and collect free-floating intraperitoneal immune cells. An incision was then made using the forceps and scissors along the abdomen skin and peritoneal wall, and intraperitoneal lavage volumes were pipetted out into fresh 15 ml falcon tubes (each prepared with 5 ml of RPMI cell culture media). Next, a wash bottle tip was inserted into the abdominal cavity. KREBS buffer was then used to wash out all material spheres from the abdomen and into petri dishes for collection. After ensuring all the spheres were washed out or manually retrieved (if fibrosed directly to intraperitoneal tissues), they were transferred into 50 mL conical tubes for downstream processing and imaging. After intraperitoneal lavage and sphere retrieval, remaining fibrosed intraperitoneal tissues were also excised for downstream FACS and expression analyses. Single-cell suspensions of freshly excised tissues were prepared using a gentle MACS Dissociator (Miltenyi Biotec, Auburn, Calif.) according to the manufacturer's protocol. Single-cell suspensions were prepared in a passive PEB dissociation buffer (1×PBS, pH 7.2, 0.5% BSA, and 2 mM EDTA) and suspensions were passed through 70 μm filters (Cat. #22363548, Fisher Scientific, Pittsburgh, Pa.). This process removed the majority of cells adhered to the surface (>90%). […]
smiles,measurement,setting,value
"COc1ccc(COc2ccc(Cc3cnc(N)nc3N)cc2OC)cc1 [GW2580, 5-[[3-Methoxy-4-[(4-methoxyphenyl)methoxy]phenyl]methyl]-2,4-pyrimidinediamine]",drug release profile,[1]; amorphous form in 2000 μm alginate capsules,Higher drug release
same,drug release profile,[1]; pure crystalline formulations in 2000 μm alginate capsules,"released the drug more slowly initially, but continued releasing drugs for a much longer period of time"
same,crystals in IP lavage liquid (differential interference contrast imaging),"C57BL/6 mice; 2 weeks after implantation, 1 week since last crystal injection",many crystals remained within the IP space
same,fibrosis of retrieved alginate microspheres (phase contrast),"C57BL/6 mice; daily amorphous drug, 3 mg/day, total 45 mg over 2 weeks",fibrosis-free
same,macrophage levels on microspheres (FACS),"C57BL/6 mice; naked crystals, 2 weeks",significant reductions in macrophage levels
same,fibrosis of retrieved alginate microspheres (phase contrast),"C57BL/6 mice; naked drug crystals, 4.5 mg once per week, 9 mg total",fibrosis-free
same,fibrosis of retrieved alginate microspheres (phase contrast),C57BL/6 mice; weekly amorphous drug,not effective
